Assay results from article PMC12951562, “SH2scan: Mapping SH2 Domain-Ligand Binding Selectivity for Inhibitors and Degraders” (Journal of Medicinal Chemistry, 2026).
Non-standard residues stand in square brackets, D forms with d. Residues, ends and D or L forms follow the SMILES beside them. pY = N[C@@H](Cc1ccc(OP(=O)(O)O)cc1)C(=O)O

What was measured:
Test in all cases: biochemical
Type in all cases: binding
[1] = target: T1, FRK (Homo sapiens, UniProt P42685); conditions: dose-response; read-out: KD
T1 construct: the DNA-tagged SH2 domain concentrations used in this study were <0.1 nM; made in house; host or cells: HEK293 (transient transfection; unpurified extract)

[2] = target: T2, GRB14 (Homo sapiens, UniProt Q14449)
T2 construct: the DNA-tagged SH2 domain concentrations used in this study were <0.1 nM; made in house; host or cells: HEK293 (transient transfection; unpurified extract)
T2 sequence (Q14449 439-535 limits assumed): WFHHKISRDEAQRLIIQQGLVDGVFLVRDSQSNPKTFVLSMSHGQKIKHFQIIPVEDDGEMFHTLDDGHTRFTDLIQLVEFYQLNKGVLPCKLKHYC

[3] = target: T3, PLCG2(SH2dom.N-term.) (Homo sapiens, UniProt P16885)
T3 construct: SH2dom.N-term. denotes SH2 domain closest to N-terminus of protein; made in house; host or cells: HEK293 (transient transfection, unpurified extract)
T3 sequence (P16885 532-635 limits assumed): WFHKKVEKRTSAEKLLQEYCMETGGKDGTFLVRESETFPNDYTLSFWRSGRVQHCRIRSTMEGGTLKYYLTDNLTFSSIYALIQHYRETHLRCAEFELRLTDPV

[4] = target: T4, CRK (Homo sapiens, UniProt P46108)
T4 construct: the DNA-tagged SH2 domain concentrations used in this study were <0.1 nM; made in house; host or cells: HEK293 (transient transfection; unpurified extract)

[5] = target: T5, CSK (Homo sapiens, UniProt P41240)
T5 construct: the DNA-tagged SH2 domain concentrations used in this study were <0.1 nM; made in house; host or cells: HEK293 (transient transfection; unpurified extract)
T5 sequence (P41240 82-171 limits assumed): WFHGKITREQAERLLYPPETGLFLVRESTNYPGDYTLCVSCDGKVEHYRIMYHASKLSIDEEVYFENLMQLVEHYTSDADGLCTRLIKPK

[6] = target: T6, SHIP2 (Homo sapiens, UniProt O15357)
T6 construct: made in house; host or cells: HEK293 (transient transfection), unpurified extract
T6 sequence (O15357 1-1258): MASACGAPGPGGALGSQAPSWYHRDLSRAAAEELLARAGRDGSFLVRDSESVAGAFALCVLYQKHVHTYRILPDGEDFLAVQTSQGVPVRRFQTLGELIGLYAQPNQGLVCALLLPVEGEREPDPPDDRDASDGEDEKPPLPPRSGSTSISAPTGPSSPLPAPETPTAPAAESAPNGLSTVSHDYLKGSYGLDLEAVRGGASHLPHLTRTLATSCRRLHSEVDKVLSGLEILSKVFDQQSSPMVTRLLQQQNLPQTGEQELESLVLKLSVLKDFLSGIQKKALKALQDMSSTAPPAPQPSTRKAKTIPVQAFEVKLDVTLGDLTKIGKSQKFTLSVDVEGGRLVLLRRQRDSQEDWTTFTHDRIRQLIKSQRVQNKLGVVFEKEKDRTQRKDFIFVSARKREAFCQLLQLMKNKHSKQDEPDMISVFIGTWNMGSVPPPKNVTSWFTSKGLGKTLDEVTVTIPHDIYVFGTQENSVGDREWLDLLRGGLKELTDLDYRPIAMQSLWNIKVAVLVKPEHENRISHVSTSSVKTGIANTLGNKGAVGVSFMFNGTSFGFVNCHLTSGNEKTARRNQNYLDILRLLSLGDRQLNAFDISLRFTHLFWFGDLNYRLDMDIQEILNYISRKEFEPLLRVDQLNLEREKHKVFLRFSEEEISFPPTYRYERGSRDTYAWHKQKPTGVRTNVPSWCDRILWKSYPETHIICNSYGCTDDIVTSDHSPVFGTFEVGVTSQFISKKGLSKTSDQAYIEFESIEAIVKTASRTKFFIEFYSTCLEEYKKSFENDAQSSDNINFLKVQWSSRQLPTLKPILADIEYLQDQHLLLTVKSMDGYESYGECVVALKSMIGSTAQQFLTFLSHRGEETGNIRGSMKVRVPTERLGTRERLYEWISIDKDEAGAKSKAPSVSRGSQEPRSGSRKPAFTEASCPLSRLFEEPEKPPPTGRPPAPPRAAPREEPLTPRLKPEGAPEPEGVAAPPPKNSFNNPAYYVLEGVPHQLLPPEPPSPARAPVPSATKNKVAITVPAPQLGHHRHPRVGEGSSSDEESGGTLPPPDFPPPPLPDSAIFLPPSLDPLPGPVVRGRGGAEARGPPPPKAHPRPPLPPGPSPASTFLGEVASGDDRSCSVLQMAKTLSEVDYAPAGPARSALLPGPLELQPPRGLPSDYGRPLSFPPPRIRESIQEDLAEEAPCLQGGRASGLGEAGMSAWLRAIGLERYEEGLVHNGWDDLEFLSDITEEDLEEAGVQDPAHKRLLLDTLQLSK

[7] = target: T7, SHIP1 (Homo sapiens, UniProt Q92835)
T7 construct: made in house; host or cells: HEK293 (transient transfection), unpurified extract
T7 sequence (Q92835 1-1189): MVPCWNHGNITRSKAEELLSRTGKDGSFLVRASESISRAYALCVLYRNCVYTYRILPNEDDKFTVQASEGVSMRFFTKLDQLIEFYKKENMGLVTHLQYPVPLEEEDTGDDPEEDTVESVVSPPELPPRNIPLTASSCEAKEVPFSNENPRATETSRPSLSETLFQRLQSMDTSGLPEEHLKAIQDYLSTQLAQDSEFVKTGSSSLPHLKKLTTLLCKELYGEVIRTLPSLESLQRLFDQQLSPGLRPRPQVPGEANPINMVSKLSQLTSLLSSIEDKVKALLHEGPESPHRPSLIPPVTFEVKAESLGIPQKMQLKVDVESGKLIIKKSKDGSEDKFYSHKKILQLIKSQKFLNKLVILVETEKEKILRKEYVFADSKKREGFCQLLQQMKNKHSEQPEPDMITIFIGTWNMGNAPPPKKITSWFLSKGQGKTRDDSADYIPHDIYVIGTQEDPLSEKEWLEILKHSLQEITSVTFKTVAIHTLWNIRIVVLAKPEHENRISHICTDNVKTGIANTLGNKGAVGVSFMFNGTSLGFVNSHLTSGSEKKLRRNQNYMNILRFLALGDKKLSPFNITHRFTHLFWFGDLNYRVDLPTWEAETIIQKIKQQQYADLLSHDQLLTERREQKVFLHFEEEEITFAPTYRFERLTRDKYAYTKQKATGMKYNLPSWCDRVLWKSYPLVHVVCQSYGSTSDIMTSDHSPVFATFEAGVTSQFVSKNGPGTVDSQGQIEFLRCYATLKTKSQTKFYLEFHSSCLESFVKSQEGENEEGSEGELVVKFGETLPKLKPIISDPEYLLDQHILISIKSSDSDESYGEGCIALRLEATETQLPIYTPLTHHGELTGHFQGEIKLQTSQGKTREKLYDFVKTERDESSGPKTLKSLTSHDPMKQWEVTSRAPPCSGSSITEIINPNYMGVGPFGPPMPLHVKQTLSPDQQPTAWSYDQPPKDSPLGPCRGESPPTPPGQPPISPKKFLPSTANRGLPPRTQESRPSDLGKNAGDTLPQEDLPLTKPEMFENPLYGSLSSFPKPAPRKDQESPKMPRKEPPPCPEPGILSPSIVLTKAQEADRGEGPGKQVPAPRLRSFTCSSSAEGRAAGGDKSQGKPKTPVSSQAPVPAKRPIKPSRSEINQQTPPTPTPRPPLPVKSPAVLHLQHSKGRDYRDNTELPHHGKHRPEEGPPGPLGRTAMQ

[8] = target: T8, GRB7 (Homo sapiens, UniProt Q14451)
T8 construct: the DNA-tagged SH2 domain concentrations used in this study were <0.1 nM; made in house; host or cells: HEK293 (transient transfection; unpurified extract)

[9] = target: T9, ABL2 (Homo sapiens, UniProt P42684)
T9 construct: the DNA-tagged SH2 domain concentrations used in this study were <0.1 nM; made in house; host or cells: HEK293 (transient transfection; unpurified extract)
T9 sequence (P42684 173-263 limits assumed): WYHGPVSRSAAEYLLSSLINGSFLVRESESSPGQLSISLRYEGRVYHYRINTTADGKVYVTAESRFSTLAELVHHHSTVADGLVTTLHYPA

[10] = target: T10, FES (Homo sapiens, UniProt P07332)
T10 construct: the DNA-tagged SH2 domain concentrations used in this study were <0.1 nM; made in house; host or cells: HEK293 (transient transfection; unpurified extract)
T10 sequence (P07332 460-549 limits assumed): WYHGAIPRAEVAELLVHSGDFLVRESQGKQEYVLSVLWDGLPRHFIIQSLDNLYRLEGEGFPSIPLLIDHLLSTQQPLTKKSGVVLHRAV

T8 sequence (Q14451 431-527 limits assumed): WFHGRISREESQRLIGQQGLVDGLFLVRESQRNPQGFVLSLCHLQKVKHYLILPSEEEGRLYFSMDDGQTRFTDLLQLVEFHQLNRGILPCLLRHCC
T4 sequence (P46108 13-118 limits assumed): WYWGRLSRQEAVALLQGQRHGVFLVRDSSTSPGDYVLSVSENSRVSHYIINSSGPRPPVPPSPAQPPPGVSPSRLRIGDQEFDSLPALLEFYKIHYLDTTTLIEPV
T1 sequence (P42685 116-208 limits assumed): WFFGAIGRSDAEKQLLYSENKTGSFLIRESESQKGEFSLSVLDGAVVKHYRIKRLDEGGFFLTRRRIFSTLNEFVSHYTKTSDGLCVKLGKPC

**Q.** Which Kd [1] does the source give for `CC[C@H](C)[C@H](NC(=O)[C@@H]1CCCN1C(=O)[C@@H](NC(=O)[C@H](CCC(=O)O)NC(=O)[C@H](CCC(=O)O)NC(=O)[C@H](Cc1ccc(OP(=O)(O)O)cc1)NC(=O)[C@H](CCC(N)=O)NC(=O)[C@@H]1CCCN1C(=O)[C@H](CCC(=O)O)NC(C)=O)[C@@H](C)CC)C(=O)N[C@@H](CCCCN)C(=O)N[C@@H](CCC(N)=O)C(N)=O` (Ac-EPQ[pY]EEIPIKQ-NH2) here?
**A.** Its Kd is 6.98 ± 1.93 µM.

**Q.** Which Kd [2] does the source give for `CSCC[C@H](NC(=O)[C@@H](NC(=O)[C@H](CCC(=O)O)NC(=O)[C@H](Cc1ccc(OP(=O)(O)O)cc1)NC(=O)[C@H](CC(C)C)NC(=O)[C@@H]1CCCN1C(=O)[C@H](CC(=O)O)NC(=O)[C@@H]1CCCN1C(C)=O)C(C)C)C(=O)N[C@@H](CC(C)C)C(=O)N[C@@H](CCCCN)C(=O)N[C@@H](CS)C(=O)N[C@@H](Cc1c[nH]c2ccccc12)C(=O)N[C@@H](CC(=O)O)C(N)=O` (Ac-PDPL[pY]EVMLKCWD-NH2) here?
**A.** Its Kd is 298 ± 131 nM.

**Q.** `CC[C@H](C)[C@H](NC(=O)[C@@H](NC(=O)[C@H](CC(C)C)NC(=O)[C@H](Cc1ccc(OP(=O)(O)O)cc1)NC(=O)[C@H](CCCNC(=N)N)NC(=O)[C@H](CCC(N)=O)NC(=O)[C@@H]1CCCN1C(=O)[C@H](CC(=O)O)NC(C)=O)C(C)C)C(=O)N[C@@H](CCC(N)=O)C(=O)NCC(=O)N[C@@H](CC(=O)O)C(=O)N[C@@H](CCC(=O)O)C(=O)N[C@@H](CC(=O)O)C(N)=O` [Ac-DPQRpYLVIQGDED-NH2] (Ac-DPQR[pY]LVIQGDED-NH2) was tested. Which Kd [3] did it give?
**A.** The Kd was 521 ± 25.4 nM.

**Q.** Which Kd [4] does the source give for `CC(=O)N[C@@H](CCC(=O)O)C(=O)N1CCC[C@H]1C(=O)N[C@@H](C)C(=O)N[C@@H](Cc1c[nH]cn1)C(=O)N[C@@H](C)C(=O)N[C@@H](Cc1ccc(OP(=O)(O)O)cc1)C(=O)N[C@@H](C)C(=O)N[C@@H](CCC(N)=O)C(=O)N1CCC[C@H]1C(=O)N[C@@H](CCC(N)=O)C(=O)N[C@H](C(=O)N[C@H](C(N)=O)[C@@H](C)O)[C@@H](C)O` [Ac-EPAHApYAQPQTT-NH2] (Ac-EPAHA[pY]AQPQTT-NH2) here?
**A.** The Kd was 1520 ± 695 nM.

**Q.** Which Kd [5] does the source give for `CC[C@H](C)[C@H](NC(C)=O)C(=O)N[C@@H](CO)C(=O)N[C@@H](C)C(=O)N[C@@H](CCSC)C(=O)N[C@@H](Cc1ccc(OP(=O)(O)O)cc1)C(=O)N[C@@H](CO)C(=O)N[C@@H](CO)C(=O)N[C@H](C(=O)N[C@@H](CCSC)C(=O)N[C@@H](CCCCN)C(N)=O)C(C)C` [Ac-ISAMpYSSVMK-NH2] (Ac-ISAM[pY]SSVMK-NH2) here?
**A.** The Kd was 48.3 ± 8.04 nM.

**Q.** For `CC(=O)N[C@@H](CC(N)=O)C(=O)N[C@@H](CC(N)=O)C(=O)N[C@H](C(=O)N[C@@H](C)C(=O)N[C@@H](Cc1ccc(OP(=O)(O)O)cc1)C(=O)N[C@@H](CO)C(=O)N[C@@H](Cc1ccc(O)cc1)C(=O)N[C@@H](CC(C)C)C(=O)N[C@@H](CC(C)C)C(=O)N[C@@H](CC(N)=O)C(=O)N[C@@H](CCCNC(=N)N)C(N)=O)C(C)C` [Ac-NNVApYSYLLNR-NH2] (Ac-NNVA[pY]SYLLNR-NH2), which Kd [6] is on record?
**A.** Its Kd is 3.31 ± 0.622 µM.

**Q.** And the Kd [7]?
**A.** The Kd was 241 ± 71.8 nM.

**Q.** For `CC(=O)N1CCC[C@H]1C(=O)N[C@@H](CCC(=O)O)C(=O)N[C@@H](Cc1ccc(OP(=O)(O)O)cc1)C(=O)N[C@H](C(=O)N[C@@H](CC(N)=O)C(=O)N[C@@H](CCC(N)=O)C(N)=O)C(C)C` [Ac-PEpYVNQ-NH2] (Ac-PE[pY]VNQ-NH2), which Kd [8] is on record?
**A.** Its Kd is 4.47 ± 0.557 µM.

**Q.** With `CC[C@H](C)[C@H](NC(=O)[C@@H]1CCCN1C(=O)[C@H](CO)NC(=O)[C@H](CO)NC(C)=O)C(=O)N[C@@H](Cc1ccc(OP(=O)(O)O)cc1)C(=O)N[C@@H](CCC(=O)O)C(=O)N[C@@H](CC(=O)O)C(=O)N[C@@H](C)C(=O)N[C@@H](C)C(N)=O` [Ac-SSPIpYEDAA-NH2] (Ac-SSPI[pY]EDAA-NH2) as the compound, how does the Kd [9] read?
**A.** Its Kd is 6.2 ± 0.584 µM.

**Q.** Which Kd [10] does the source give for `CC(=O)N[C@H](C(=O)N[C@@H](Cc1ccc(OP(=O)(O)O)cc1)C(=O)N[C@@H](CCC(=O)O)C(=O)N1CCC[C@H]1C(=O)N[C@H](C(=O)N[C@@H](CO)C(=O)N[C@@H](Cc1ccc(O)cc1)C(N)=O)C(C)C)C(C)C` [Ac-VpYEPVSY-NH2] (Ac-V[pY]EPVSY-NH2) here?
**A.** The Kd was 711 ± 170 nM.
